Experimental data from patent publication US20240016781A1, “TREATMENT OF KRAS MUTANT CANCERS” (MEI Pharma, Inc., priority 2020, published 2024).

Assays:
MYC protein in AML cells = settings: 3 hr; cited from earlier work
NCI-H358 cells = assay: 2D culture dose response; type: cell-based; settings: Homo sapiens
SW-480 (CRC, KRAS G12V) = assay: Murine xenograft tumor growth inhibition, SW-480; type: in vivo, SCID mice; settings: SW-480 xenograft; orally 50, 100, or 200 mg/kg OD for 11-14 days; all doses
Procedure: (§1) Voruciclib is an oral inhibitor of CDKs 9, 4, 6, and 1 currently being tested in Phase 1B clinical trials for B-cell malignancies and acute myeloid leukemia. Voruciclib inhibition of CDK9 leads to decreased expression of transcriptional targets of RNA Pol II, such as Mcl1 and MYC. To test whether Voruciclib could be effective in cancers driven by dysregulated KRAS-MYC signaling, ˜20 cancer cell lines with KRAS mutations (G12A, G12C, G12D, G12S, G12V, G13C, G13D, Q61H) were treated in preclinical studies with Voruciclib. MTS and Cell Titer Glo assays were used to monitor growth in vitro. […] To investigate MYC protein stability, MIA PACA-2 (G12C) cells were treated with 4 μM Voruciclib for 5-240 min, followed by SDS-PAGE and Western Blotting analysis with α-MYC and α-pSer62-MYC antibodies. […] A 60% decrease in pSer62 was observed after 5 min that reached 80% by 60 min. […] The ability of Voruciclib to inhibit tumor growth in vivo was also tested in murine xenograft models. KRAS mutant human cancer cells HCT-116 (CRC, KRAS G13D), SW-480 (CRC, KRAS G12V), and H-460 (NSCLC, KRAS Q61H) were injected subcutaneously into SCID mice. Once tumors reached 5-10 mm in diameter, Voruciclib or vehicle were administered orally at 50, 100, or 200 mg/kg OD for 11-14 days. Tumors were measured every 2-3 days, and growth inhibition relative to control was calculated. […]

H-460 (NSCLC, KRAS Q61H) = assay: Murine xenograft tumor growth inhibition, H-460; type: in vivo, SCID mice; settings: H-460 xenograft; orally 50, 100, or 200 mg/kg OD for 11-14 days; all doses
Procedure: as §1

[1] = tested on: cancer cell lines with KRAS mutations (G12A, G12C, G12D, G12S, G12V, G13C, G13D, Q61H); assay: MTS and Cell Titer Glo growth assays in ~20 KRAS mutant cancer cell lines; type: cell-based; settings: ~20 cancer cell lines with KRAS mutations
Procedure: as §1

MIA PaCa-2 xenografts = assay: CIVO intratumoral microinjection, MIA PaCa-2 xenografts; type: in vivo; settings: MIA PaCa-2 PDAC tumors
From the text: Replicate Tumors: n≥5. Time Point: 24 hr. Cell Line; MIA PaCa-2. Biomarker: CC3, H&E.
The original paraffin embedded fixed tumor blocks were sliced and stained for MCL-1 and total MYC using antibodies specific to each. The MYC staining is in red. The MCL-1 staining is in yellow. The nuclei are stained in blue. For MYC and MCL-1, a decrease in the signal indicates an on-target effect of VOR.

MIA Paca-2 cells = assay: Voruciclib-sensitive phosphoproteome (TMT, LC-MS/MS); type: cell-based; settings: voruciclib 4 μM over time
Procedure: Cells were treated with voruciclib (4 μM) over time. (FIG. 31A) Summary of peptide quantification after TMT labelling and analysis by LC-MS/MS. (FIG. 31B) Volcano plots of phosphosites (log 2 fold change vs −log 10 p-value).
To define the CDK9-dependent phosphoproteome, cells are treated for a short time period with VOR followed by harvesting of the cells, IMAC enrichment, 16-plex isobaric tagging, and analysis by LC/MS/MS. A time course or different doses or drug combinations for the conditions can be performed. This experiment provides insight into novel CDK9 substrates and inroads into possible therapeutic areas for CDK9 inhibition by VOR.

Solid Tumors = assay: Monotherapy Phase 1 study in solid tumors, daily continuously schedule; type: in vivo, human
in vivo = settings: SCID, mouse
Procedure: (§2) Animals were randomized into 2 groups when tumors reached 100 mm diameter. Group A assigned single dosing. […] Drug concentration was measured in tumor and plasma after last dose at the following time points: 0, 4, 8, 24, 48, 72 hrs. […] Concentration of voruciclib in plasma is in units of μg/ml and in μg/g for tumors.

[2] = tested on: Relapsed/Refractory B-cell malignancies; Relapsed/Refractory AML; assay: Phase 1 study in R/R B-cell malignancies and AML; type: in vivo, human
Procedure: Study population: Relapsed/Refractory B-cell malignancies; Relapsed/Refractory AML; Dose escalation with standard 3+3 design.
Endpoints: Safety and tolerability, Pharmacokinetics, Biologic correlative studies (BH3 profiling, MCL-1 expression, molecular mutations analysis), Response rates.
Voruciclib single agent dose escalation: 50 mg>100 mg>150 mg>200 mg.
Differentiation syndrome seen in 5 pts (50%) (Increased WBC without increased in blasts, bone pain, pulmonary symptoms; Response to corticosteroids).

[3] = tested on: Venetoclax Sensitive and Resistant Cell Lines; assay: Voruciclib + venetoclax synergy in venetoclax sensitive and resistant cell lines; type: cell-based
From the text: FIG. 4A: Ven Sensitive; FIG. 4B: Ven Resistant.

[4] = SCID, mouse, in vivo, po, 100 mg/kg
Procedure: as §2

HCT-116 (CRC, KRAS G13D) = assay: Murine xenograft tumor growth inhibition, HCT-116; type: in vivo, SCID mice; settings: HCT-116 xenograft; orally 50, 100, or 200 mg/kg OD for 11-14 days; all doses
Procedure: as §1

[5] = Daily continuously schedule, 75 to 500 mg, 39 pts

**Q.** With `CN1CC[C@@H](c2c(O)cc(O)c3c(=O)cc(-c4ccc(C(F)(F)F)cc4Cl)oc23)[C@@H]1CO` [Voruciclib, (+)-trans-2-(2-Chloro-4-trifluoromethylphenyl)-5,7-dihydroxy-8-(2-hydroxymethyl-1-methylpyrrolidin-3-yl)-chromen-4-one] as the compound, how does the MYC protein (MYC protein in AML cells) read?
**A.** decrease in MYC protein

**Q.** What about the IC50 (NCI-H358 cells) of the same compound?
**A.** 600 nM

**Q.** What about the “tumor growth inhibition relative to control” value (SW-480 (CRC, KRAS G12V)) of the same compound?
**A.** > 50%

**Q.** What about the “tumor growth inhibition relative to control” value (H-460 (NSCLC, KRAS Q61H)) of the same compound?
**A.** > 50%

**Q.** And the “viability (growth in vitro)” value [1]?
**A.** decreased viability in all cell lines tested

**Q.** What about the MYC positive cells (MIA PaCa-2 xenografts) of the same compound?
**A.** decrease in MYC

**Q.** What about the phosphoproteome change (MIA Paca-2 cells) of the same compound?
**A.** rapid downregulation of phosphoproteins controlling transcription of MYC

**Q.** What about the best response (Solid Tumors; [5]) of the same compound?
**A.** 12 SD lasting a median of 15 weeks

**Q.** What about the disease control rate (Solid Tumors; [5]) of the same compound?
**A.** 31%

**Q.** What about the “patients with decreased c-MYC expression” value (Solid Tumors; Phase 1 daily dosing study, 17/25 patients tested) of the same compound?
**A.** 68%

**Q.** And the Kp (in vivo)?
**A.** > 5

**Q.** And the “GI toxicity or neutropenia” value ([2]; 24 pts in 3 dose levels, 10 AML and 14 B-cell malignancies)?
**A.** No GI toxicity or neutropenia at doses studied

**Q.** What about the “patients with differentiation syndrome” value ([2]; AML) of the same compound?
**A.** 50%

**Q.** And the “synergy with Venetoclax” value [3]?
**A.** Synergizes with Venetoclax

**Q.** And the “voruciclib level in tumor at 8 hours compared to 24 hours post dosing” value [4]?
**A.** > 5 fold

**Q.** And the “tumor growth inhibition relative to control” value (HCT-116 (CRC, KRAS G13D))?
**A.** > 50%
